# Experimental data published in US10106757B2, “Ionic liquid, lubricant, and magnetic recording medium” (DEXERIALS CORPORATION, priority 2016, dated 2018).
# Legend:
# [1] = Thermal stability by TG/DTA measurement; type: physicochemical; details: for Weight reduction temperatures higher than / thermal stability improved compared with Z-DOL: compared with Z-DOL (Comparative Example 5C); for Weight reduction temperatures higher than / thermal stability improved compared with Z-TETRAOL: compared with Z-TETRAOL (Comparative Example 6C); for Weight reduction temperature 5% / Weight reduction temperature 10% / Weight reduction temperature 20%: TG/DTA, 30-600° C., 10° C./min, air 200 mL/min
# [2] = in acetonitrile; cited from earlier work
# [3] = Solubility test in fluorine-based solvent Vertrel XF; type: physicochemical; details: 25° C., 0.2 parts by mass added to 100 parts, ultrasonic 5 minutes, left 1 day, visually observed
# Method: (§1) To a predetermined amount of Vertrel XF or n-hexane, the ionic liquid, Z-DOL, or Z-TETRAOL was added. Ultrasonic waves were applied to the resultant mixture for 5 minutes, followed by leaving the mixture to stand for 1 day. The solubility was visually observed.
# (§2) Specifically, 0.2 parts by mass of the ionic liquid, Z-DOL, or Z-TETRAOL was added to 100 parts by mass of Vertrel XF (25° C.). After applying ultrasonic waves to the resultant for 5 minutes, the resultant was left to stand for 1 day. Thereafter, the solubility was visually observed and evaluated based on the following evaluation criteria.
# [Evaluation Criteria (Fluorine-Based Solvent)]
# • 0.2% by mass or greater:
# Soluble with addition of 0.2 parts by mass • Less than 0.2% by mass:
# Insoluble with addition of 0.2 parts by mass
# (§3) Note that, the solubility was visually observed, and it was judged as soluble when it was transparent. Moreover, it was judged as not soluble (insoluble) when it was opaque or insoluble components were observed.
# [4] = Solubility test in hydrocarbon-based solvent n-hexane; type: physicochemical; details: 25° C., 0.5 parts by mass added to 100 parts, ultrasonic 5 minutes, left 1 day, visually observed
# Method: as §1
# as §2, with “In case of n-hexane, similarly, 0.5” for “Specifically, 0.2”, “n-hexane at 25° C.” for “Vertrel XF (25° C.).”
# [Evaluation Criteria (Hydrocarbon-Based Solvent)]
# • 0.5% by mass or greater:
# Soluble with addition of 0.5 parts by mass • Less than 0.5% by mass:
# Insoluble with addition of 0.5 parts by mass
# as §3
Molecule,Weight reduction temperatures higher than / thermal stability improved compared with Z-DOL [1] [°C],Weight reduction temperatures higher than / thermal stability improved compared with Z-TETRAOL [1] [°C],Solubility Vertrel XF [3] [% by mass],Solubility n-hexane [4] [% by mass],Weight reduction temperature 5% [1] [°C],Weight reduction temperature 10% [1] [°C],Weight reduction temperature 20% [1] [°C],other results
CCCCCCCCCCCCn1cc[n+](CCCCCCCCCCCC)c1CCCCCCCCCCC.O=S(=O)([N-]S(=O)(=O)C(F)(F)C(F)(F)C(F)(F)C(F)(F)F)C(F)(F)C(F)(F)C(F)(F)C(F)(F)F,≥ 170,≥ 90,,,,,,
CCCCCCCCCCCCCCCCCCn1cc[n+](CCCCCCCCCCCCCCCCCC)c1CCCCCCCCCCCCCCCCC.O=S(=O)([N-]S(=O)(=O)C(F)(F)C(F)(F)C(F)(F)C(F)(F)F)C(F)(F)C(F)(F)C(F)(F)C(F)(F)F,≥ 140,≥ 60,,,,,,
O=S(=O)(C(S(=O)(=O)C(F)(F)F)S(=O)(=O)C(F)(F)F)C(F)(F)F [(CF3SO2)3CH],,,,,,,,pKa [2]: −3.7
"CCCCCCCCCCCCCCCCCC[n+]1ccn(CCCC)c1.O=S1(=O)[N-]S(=O)(=O)C(F)(F)C(F)(F)C1(F)F [Comp. Ex. 2A, hexafluorocyclopropane-1,3-bis(sulfonyl)imide-1-butyl-3-n-octadecylimidazolium, reference compound]",,,< 0.2,< 0.5,,,,
"CCCCCCCCCCCCn1cc[n+](CCCCCCCCCCCC)c1CCCCCCCCCCC.O=S(=O)([N-]S(=O)(=O)C(F)(F)C(F)(F)C(F)(F)C(F)(F)F)C(F)(F)C(F)(F)C(F)(F)C(F)(F)F [Ex. 2A, bis(nonafluorobutanesulfonyl)imide-1,3-didodecyl-2-undecylimidazolium]",,,≥ 0.2,≥ 0.5,335.7,368.9,395.7,Solubility Vertrel XF ([3]; listed as Example 2A): ≥ 0.2 % by mass; Solubility n-hexane ([4]; listed as Example 2A): ≥ 0.5 % by mass
"CCCCCCCCCCCCCCCCCCn1cc[n+](CCCCCCCCCCCCCCCCCC)c1CCCCCCCCCCCCCCCCC.O=S(=O)([N-]S(=O)(=O)C(F)(F)C(F)(F)C(F)(F)C(F)(F)F)C(F)(F)C(F)(F)C(F)(F)C(F)(F)F [Ex. 4A, bis(nonafluorobutanesulfonyl)imide-1,3-dioctadecyl-2-heptadecylimidazolium]",,,< 0.2,≥ 0.5,300.1,337.3,385.8,Solubility Vertrel XF ([3]; listed as Example 4A): less than 0.2 % by mass; Solubility n-hexane ([4]; listed as Example 4A): ≥ 0.5 % by mass
"nonafluorobutanesulfonic acid-1,3-didodecyl-2-undecylimidazolium",≥ 130,≥ 40,,,287.9,331.8,378.4,
"nonafluorobutanesulfonic acid-1,3-dioctadecyl-2-heptadecylimidazolium",≥ 110,≥ 40,,,279.7,310.9,361.9,
